Laboratory results published in US9981968B2, “Substituted pyrrolo[2,3-d]pyrimidines for the treatment of cancer and proliferative disorders” (Northwestern University, priority 2013, dated 2018).

Key:
Assay type in all cases: cell-based
SF-539 = test: SRB growth assay, SF-539; conditions: Homo sapiens, SF-539 (CNS), 48 hours, read-out: Percent viability
Description: (§1) Tested cell lines included, Leukemia: CCRF-CEM, HL-60(TB), MOLT-4, RPMI-8226 and SR; Non-Small Cell Lung: A549/ATCC, EKVX, HOP-62, HOP-92, NCI-H226, NCI-H23, NCI-H322M, NCI-H460 and NCI-H522; Colon: COLO 205, HCC-2998, HCT-116, HCT-15. HT29, KM12 and SW-620; CNS: SF-268, SF-295, SF-539, SNB-19, SNB-75 and U251; Melanoma: LOX IMVI, MALME-3M, M14, MDA-MB-435, SK-MEL-2, SK-MEL-28, SK-MEL-5, UACC-257 and UACC-62; Ovarian: IGR-OV1, OVCAR-3, OVCAR-4, OVCAR-5, OVCAR-8. NCI/ADR-RES and SK-OV-3; Renal: 786-0, A498, ACHN, CAKI-1, RXF 393, SN12C, TK-10 and UO-31; Prostate: DU-145 and PC-3; and Breast: MCF7, MDA-MB-231/ATCC, MDA-MB-468, HS 578T, BT-549 and T-47D.
(§2) The cells were cultured in RPMI1640 media supplemented with 10% Fetal Bovine Serum (FBS), 2 mM glutamine and with 5% CO2 and 37° C. For experiment, 5% of FBS and 50 ug/mL of gentamycin were used. Test articles were 10 μM of NUCL 381-3 or 10 μM NUCL 383-3. The positive control was 10 μM of doxorubicin.
(§3) Cells were plated in 96 well plates. The cells were plated in triplicate. Cells were plated at the densities based on NCI recommendation. Time zero cells (Tz) were fixed the following day with 50% or 80% ice cold Trichloracetic acid (TCA) and washed 5× with water. At 48 hours post addition of treatments, all remaining plates were fixed in 80% ice cold Trichloracetic acid (TCA) and washed 5× with water. After drying, one hundred microliters of 0.4% Sulphorhodamine B (SRB) in 1% acetic acid was added to each plate including the Tzero plate and incubated for 10 minutes at room temperature. After 5 additional washes with 1% acetic acid, plates were allowed to dry. One hundred microliters of Trizma base was added to each well and plates were read at 515 nm.
(§4) Percent of growth was calculated by the following formulas: [Ti/C]×100, where: Tz=absorbance readings for wells at time zero without treatment; C=absorbance readings of untreated cells (without treatment); and Ti=absorbance reading of wells with treatment.

HCT-116 = test: SRB growth assay, HCT-116; conditions: Homo sapiens, HCT-116 (Colon), 48 hours, read-out: Percent viability
Description: as §1, §2, §3, §4

IGR-OV1 = test: SRB growth assay, IGR-OV1; conditions: Homo sapiens, IGROV-1, IGR-OV1 (Ovarian), 48 hours, read-out: Percent viability
Description: as §1, §2, §3, §4

COLO 205 = test: SRB growth assay, COLO 205; conditions: Homo sapiens, COLO 205 (Colon), 48 hours, read-out: Percent viability
Description: as §1, §2, §3, §4

OVCAR-4 = test: SRB growth assay, OVCAR-4; conditions: Homo sapiens, OVCAR-4 (Ovarian), 48 hours, read-out: Percent viability
Description: as §1, §2, §3, §4

LOX IMVI = test: SRB growth assay, LOX IMVI; conditions: Homo sapiens, LOX IMVI (Melanoma), 48 hours, read-out: Percent viability
Description: as §1, §2, §3, §4

MDA-MB-468 = test: SRB growth assay, MDA-MB-468; conditions: Homo sapiens, MDA-MB-468 (Breast), 48 hours, read-out: Percent viability
Description: as §1, §2, §3, §4

HT29 = test: SRB growth assay, HT29; conditions: Homo sapiens, HT-29, HT29 (Colon), 48 hours, read-out: Percent viability
Description: as §1, §2, §3, §4

HS 578T = test: SRB growth assay, HS 578T; conditions: Homo sapiens, HS 578T (Breast), 48 hours, read-out: Percent viability
Description: as §1, §2, §3, §4

SNB-19 = test: SRB growth assay, SNB-19; conditions: Homo sapiens, SNB-19 (CNS), 48 hours, read-out: Percent viability
Description: as §1, §2, §3, §4

NCI/ADR-RES = test: SRB growth assay, NCI/ADR-RES; conditions: Homo sapiens, NCI/ADR-RES (Ovarian), 48 hours, read-out: Percent viability
Description: as §1, §2, §3, §4

M14 = test: SRB growth assay, M14; conditions: Homo sapiens, M14 (Melanoma), 48 hours, read-out: Percent viability
Description: as §1, §2, §3, §4

SNB-75 = test: SRB growth assay, SNB-75; conditions: Homo sapiens, SNB-75 (CNS), 48 hours, read-out: Percent viability
Description: as §1, §2, §3, §4

NCI-H23 = test: SRB growth assay, NCI-H23; conditions: Homo sapiens, NCI-H23 (Non-Small Cell Lung), 48 hours, read-out: Percent viability
Description: as §1, §2, §3, §4

MDA-MB-435 = test: SRB growth assay, MDA-MB-435; conditions: Homo sapiens, MDA-MB-435 (Melanoma), 48 hours, read-out: Percent viability
Description: as §1, §2, §3, §4

UACC-257 = test: SRB growth assay, UACC-257; conditions: Homo sapiens, UACC-257 (Melanoma), 48 hours, read-out: Percent viability
Description: as §1, §2, §3, §4

U251 = test: SRB growth assay, U251; conditions: Homo sapiens, U-251, U251 (CNS), 48 hours, read-out: Percent viability
Description: as §1, §2, §3, §4

SR = test: SRB growth assay, SR; conditions: Homo sapiens, SR (Leukemia), 48 hours, read-out: Percent viability
Description: as §1, §2, §3, §4

RXF 393 = test: SRB growth assay, RXF 393; conditions: Homo sapiens, RXF 393 (Renal), 48 hours, read-out: Percent viability
Description: as §1, §2, §3, §4

NCI-H522 = test: SRB growth assay, NCI-H522; conditions: Homo sapiens, NCI-H522 (Non-Small Cell Lung), 48 hours, read-out: Percent viability
Description: as §1, §2, §3, §4

A498 = test: SRB growth assay, A498; conditions: Homo sapiens, A498 (Renal), 48 hours, read-out: Percent viability
Description: as §1, §2, §3, §4

HCC-2998 = test: SRB growth assay, HCC-2998; conditions: Homo sapiens, HCC-2998 (Colon), 48 hours, read-out: Percent viability
Description: as §1, §2, §3, §4

NCI-H322M = test: SRB growth assay, NCI-H322M; conditions: Homo sapiens, NCI-H322M (Non-Small Cell Lung), 48 hours, read-out: Percent viability
Description: as §1, §2, §3, §4

Row | Compound | viability at 10 µM (SF-539) | viability at 10 µM (HCT-116) | viability at 10 µM (IGR-OV1) | viability at 10 µM (COLO 205) | viability at 10 µM (OVCAR-4) | viability at 10 µM (LOX IMVI) | viability at 10 µM (MDA-MB-468) | viability at 10 µM (HT29) | viability at 10 µM (HS 578T) | viability at 10 µM (SNB-19) | viability at 10 µM (NCI/ADR-RES) | viability at 10 µM (M14) | viability at 10 µM (SNB-75) | viability at 10 µM (NCI-H23) | viability at 10 µM (MDA-MB-435) | viability at 10 µM (UACC-257) | viability at 10 µM (U251) | viability at 10 µM (SR) | viability at 10 µM (RXF 393) | viability at 10 µM (NCI-H522) | other results
1 | CS(=O)(=O)N1CCC(Cn2cc(C(F)(F)F)c3c(Cl)ncnc32)CC1 [NUCC-0000383] | 4.93% | 15% | 77.5% | 93% | 97% | 35.8% | 93.8% | 30.3% | 50.1% | 21.4% | 99% | 78.5% | 23.3% | 46.1% | 46.6% | 74.7% | 2.47% | 37% | 7.81% | 21.7% | viability at 10 µM (A498): 101%; viability at 10 µM (HCC-2998): 73.2%; viability at 10 µM (NCI-H322M): 53.8%
2 | FC(F)(F)c1cn(CC2CCNCC2)c2ncnc(Cl)c12 [NUCC-0000381] | 7.4% | 20.1% | 36.9% | 79.5% | 53% | 26% | 102% | 33.3% | 53.9% | 28.9% | 93.3% | 96.2% | 83.3% | 42.3% | 65.5% | 87.2% | 15.1% | 16.7% | 12% | 38.7% | viability at 10 µM (A498): 93.8%; viability at 10 µM (HCC-2998): 93.5%; viability at 10 µM (NCI-H322M): 68.1%
3 | COc1cccc2c1C(=O)c1c(O)c3c(c(O)c1C2=O)C[C@@](O)(C(=O)CO)C[C@@H]3O[C@H]1C[C@H](N)[C@H](O)[C@H](C)O1 [Doxorubicin, reference compound] | 6.83% | 14.9% | 8.63% | 2.33% | 103% | 24.4% | 45.8% | 34.9% | 51.5% | 37.3% | 78.8% | 25.5% | 36% | 27.6% | 17.4% | 100% | 22% | 11.1% | 8.68% | 18.1% | viability at 10 µM (A498): 62.9%; viability at 10 µM (HCC-2998): 20.9%; viability at 10 µM (NCI-H322M): 42.6%
